{"source": "patent US20240299373A1", "about": "“IMPROVED USE OF TRADIPITANT IN MOTION SICKNESS” (Vanda Pharmaceuticals Inc., priority 2023, published 2024)", "key": {"[1]": {"test_system": "panel of 74 other receptors, enzymes, and ion channels", "experiment": "Selectivity panel binding", "conditions": "test concentration of 1 μM", "from_the_text": "Tradipitant is a selective neurokinin-1 (NK-1) receptor antagonist. […] By 3 different measures, tradipitant is also a potent centrally active NK-1 antagonist in vivo."}, "NK-2 receptor": {"target": "T1, NK-2 receptor (Homo sapiens, UniProt P21452)", "T1 sequence (P21452 1-398)": "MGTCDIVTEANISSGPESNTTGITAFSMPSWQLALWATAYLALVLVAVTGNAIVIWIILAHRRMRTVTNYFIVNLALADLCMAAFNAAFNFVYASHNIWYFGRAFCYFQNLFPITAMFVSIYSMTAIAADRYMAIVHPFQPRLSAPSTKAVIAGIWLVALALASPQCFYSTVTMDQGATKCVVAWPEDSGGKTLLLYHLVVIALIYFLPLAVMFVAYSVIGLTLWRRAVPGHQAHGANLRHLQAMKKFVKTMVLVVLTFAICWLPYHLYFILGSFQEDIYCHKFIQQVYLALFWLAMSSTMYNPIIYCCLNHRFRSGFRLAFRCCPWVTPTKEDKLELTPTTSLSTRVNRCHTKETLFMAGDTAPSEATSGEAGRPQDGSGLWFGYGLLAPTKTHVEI", "experiment": "NK-2 receptor inhibition", "format": "binding"}, "NK-3 receptor": {"target": "T2, NK-3 receptor (Homo sapiens, UniProt P29371)", "T2 sequence (P29371 1-465)": "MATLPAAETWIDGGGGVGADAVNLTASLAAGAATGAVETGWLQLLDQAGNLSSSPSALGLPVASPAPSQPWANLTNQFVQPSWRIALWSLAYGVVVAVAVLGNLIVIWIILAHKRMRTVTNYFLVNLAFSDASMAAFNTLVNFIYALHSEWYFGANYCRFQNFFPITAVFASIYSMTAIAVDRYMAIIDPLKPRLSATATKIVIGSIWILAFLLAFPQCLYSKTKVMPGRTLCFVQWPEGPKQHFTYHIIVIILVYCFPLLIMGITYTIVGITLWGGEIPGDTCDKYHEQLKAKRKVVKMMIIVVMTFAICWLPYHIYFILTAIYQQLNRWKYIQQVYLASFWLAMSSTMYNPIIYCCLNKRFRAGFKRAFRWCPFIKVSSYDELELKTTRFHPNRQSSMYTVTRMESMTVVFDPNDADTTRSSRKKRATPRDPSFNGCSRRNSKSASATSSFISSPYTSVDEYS", "experiment": "NK-3 receptor inhibition", "format": "binding"}, "NK-1 receptor": {"target": "T3, NK-1 receptor (Meriones unguiculatus, UniProt Q5DUB1)", "T3 construct": "centrally acting NK-1 receptor antagonist in vivo in the gerbil; from tissue; host or cells: brain of living Mongolian gerbils", "T3 sequence (Q5DUB1 whole entry)": "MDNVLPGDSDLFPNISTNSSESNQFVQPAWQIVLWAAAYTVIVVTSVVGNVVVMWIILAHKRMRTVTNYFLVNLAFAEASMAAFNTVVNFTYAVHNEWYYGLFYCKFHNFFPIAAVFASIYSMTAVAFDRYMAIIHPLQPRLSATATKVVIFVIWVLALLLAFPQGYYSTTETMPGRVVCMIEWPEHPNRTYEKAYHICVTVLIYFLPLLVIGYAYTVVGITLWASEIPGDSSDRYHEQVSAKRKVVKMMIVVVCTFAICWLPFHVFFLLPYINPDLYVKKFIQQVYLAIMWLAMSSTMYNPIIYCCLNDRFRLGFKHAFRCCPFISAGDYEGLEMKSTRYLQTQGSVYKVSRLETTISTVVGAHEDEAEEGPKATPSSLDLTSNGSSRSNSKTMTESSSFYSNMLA", "experiment": "NK-1 agonist (GR73632, icv)-induced foot-tapping behavior in gerbils", "format": "in vivo", "conditions": "gerbil, 0.1 mg/kg po", "method": "Male Mongolian gerbils (Harlan Sprague Dawley, Indianapolis, IN) weighing 26 to 40 grams are administered the selective neurokinin-1 receptor agonist GR73632 (3 pmol) via direct, vertical, free-hand intracerebroventricular (icy) injection to a depth of 4.5 mm below bregma with a cuffed 27-gauge needle attached to a 50 μl Hamilton syringe. Immediately after injection, animals are placed individually into isolated chambers with pressure-sensitive velocimeter platform floors (San Diego Instruments acoustic startle apparatus) that detect and quantify vibration. The San Diego Instruments “SR” DOS-based computer program is used on a PC to record the number of foot-taps over the following 6 to 10 minutes, beginning 30 seconds after the floor is lightly tapped. […] The total number and average intensity of events over the duration is determined. Total number of taps is analyzed with one-way ANOVA and post-hoc Dunnett's test using JMP statistical software.\nA dose-response curve (with doses of 0.3, 1, 3 and 10 pmols, icy) is initially generated with the NK-1 agonist GR73632.\nNK-1 antagonists are tested for their ability to attenuate GR73632-induced foot tapping. NK-1 antagonists are administered (po) via oral feeding tube at doses and time points specified in each experiment. […]\nNK-1 antagonists are administered at multiple doses (at least 3; one dose per animal) and response to GR73632 is measured. […]"}, "motion sickness": {"test_system": "motion sickness", "experiment": "Clinical study of motion sickness prevention during sea travel", "format": "in vivo, human", "conditions": "for study participants experiencing vomiting: tradipitant arm 170 mg", "method": "A randomized, double blind, placebo-controlled clinical study of motion sickness is conducted, in which 126 human subjects (“study participants”), each having a prior history of motion sickness, are subjected to sea travel in the Pacific Ocean under varied weather conditions. Study participants are distributed over seven (7) four-hour boat trips off the coast of Los Angeles, California, USA. For each trip, sea conditions and participant self-evaluation of symptoms of motion sickness are recorded. Among the seven trips, three are under “rough” sea conditions, conducive to producing motion sickness with wave heights above one meter. The remaining four trips are made under “calm” conditions, with wave heights less than one meter, and are less likely to produce motion sickness. Under “rough” sea conditions, 72.2% of the placebo treated patients experience vomiting compared to only 26.7% under “calm” conditions. Subjects are randomized 1:1 to receive either tradipitant 170 mg or placebo by mouth in a blinded fashion, prior to travel initiation. Participants report their symptoms at predetermined time intervals of every 30 minutes during the travel period using the Motion Sickness Severity Scale (MSSS) and other assessments. Primary end points of the study include: percentage of participants vomiting, and Motion Sickness Severity Scale (MSSS) Worst score. The MSSS is a 7 point scale ranging from 0 (“no symptoms”) to 6 (“vomiting”). An exploratory analysis is also performed to evaluate the effects of tradipitant under “calm” and “rough” seas. In the study described above in Example 3, further analysis is conducted with respect to study participants' ethnic backgrounds, in particular, whether study participants are Hispanic or non-Hispanic, e.g., white (non-Hispanic), Black or African American (non-Hispanic), American Indian and Alaska Native (non-Hispanic), Asian (non-Hispanic), Native Hawaiian and other Pacific Islander (non-Hispanic), some other race (non-Hispanic), or multi-racial (non-Hispanic). Results are analyzed based on study participants' self-reported ethnic backgrounds."}}, "data": [{"molecule": "O=C(c1ccccc1Cl)c1cccnc1-c1nnn(Cc2cc(C(F)(F)F)cc(C(F)(F)F)c2)c1-c1ccncc1", "note": "[Tradipitant, {2-[1-(3,5-bistrifluoromethylbenzyl)-5-pyridin-4-yl-1H-[1,2,3]triazol-4-yl]-pyridin-3-yl}-(2-chlorophenyl)-methanone]", "values": [{"measurement": "inhibition of binding in panel of 74 other receptors, enzymes, and ion channels", "setting": "[1]", "value": "≤ 50", "unit": "%"}, {"measurement": "inhibition at NK-2 receptor", "setting": "NK-2 receptor", "value": "no significant inhibition"}, {"measurement": "inhibition at NK-3 receptor", "setting": "NK-3 receptor", "value": "no significant inhibition"}, {"measurement": "time after administration up to which foot-tapping behavior is significantly inhibited", "setting": "NK-1 receptor", "value": "up to 7 hours"}, {"measurement": "% Vomiting, Difference placebo vs tradipitant", "setting": "motion sickness; Calm Sea, P-value 0.3123", "value": 8.5, "unit": "%"}, {"measurement": "Worst MSSS, Difference placebo vs tradipitant", "setting": "motion sickness; Calm Sea, P-value 0.8271", "value": "−0.09"}, {"measurement": "Worst MSSS", "setting": "motion sickness; Calm Sea, n = 44, 170 mg by mouth, placebo 3.32", "value": 3.4}, {"measurement": "Worst MSSS", "setting": "motion sickness; Calm Sea, n = 44, 170 mg by mouth, placebo 3.32, listed as tradipitant", "value": 3.40}, {"measurement": "% Vomiting", "setting": "motion sickness; Calm Sea, n = 44, 170 mg by mouth, placebo 26.7%", "value": 18.2, "unit": "%"}, {"measurement": "% Vomiting", "setting": "motion sickness; Calm Sea, n = 44, 170 mg by mouth, placebo 26.7%, listed as tradipitant", "value": 18.2, "unit": "%"}, {"measurement": "study participants experiencing vomiting", "setting": "motion sickness; Hispanic participants, placebo 33.3%", "value": 4.5, "unit": "%"}, {"measurement": "% Vomiting, Difference placebo vs tradipitant", "setting": "motion sickness; ITT, P-value 0.0039", "value": 22.2, "unit": "%"}, {"measurement": "Worst MSSS, Difference placebo vs tradipitant", "setting": "motion sickness; ITT, P-value 0.2936", "value": 0.35}, {"measurement": "Worst MSSS", "setting": "motion sickness; ITT, n = 63, 170 mg by mouth, placebo 3.75", "value": 3.40}, {"measurement": "Worst MSSS", "setting": "motion sickness; ITT, n = 63, 170 mg by mouth, placebo 3.75, listed as tradipitant", "value": 3.4}, {"measurement": "% Vomiting", "setting": "motion sickness; ITT, n = 63, 170 mg by mouth, placebo 39.7%", "value": 17.5, "unit": "%"}, {"measurement": "% Vomiting", "setting": "motion sickness; ITT, n = 63, 170 mg by mouth, placebo 39.7%, listed as tradipitant", "value": 17.5, "unit": "%"}, {"measurement": "% Vomiting, Difference placebo vs tradipitant", "setting": "motion sickness; Rough Sea, P-value 0.0009", "value": 56.4, "unit": "%"}, {"measurement": "Worst MSSS, Difference placebo vs tradipitant", "setting": "motion sickness; Rough Sea, P-value 0.0235", "value": 1.38}, {"measurement": "Worst MSSS", "setting": "motion sickness; Rough Sea, n = 19, 170 mg by mouth, placebo 4.57", "value": 3.19}, {"measurement": "% Vomiting", "setting": "motion sickness; Rough Sea, n = 19, 170 mg by mouth, placebo 72.2%", "value": 15.8, "unit": "%"}, {"measurement": "% Vomiting", "setting": "motion sickness; Rough Sea, n = 19, 170 mg by mouth, placebo 72.2%, listed as tradipitant", "value": 15.8, "unit": "%"}, {"measurement": "study participants experiencing vomiting", "setting": "motion sickness; non-Hispanic participants, placebo 42.8%", "value": 24.4, "unit": "%"}]}]}
